Reference: patent US12037363B2, “Peptides for Covid-19 prevention and treatment” (SOTIRA COVID, LLC, priority 2020, dated 2024)
pKd: −log10 of the molar value.

Assays:
ACE-2 [1] = target: T1, ACE-2 (Homo sapiens, UniProt Q9BYF1); test: surface plasmon resonance (SPR); details: different concentrations of ACIS as analyte; hyperbolic binding curve
[2] = system: SARS-CoV2 in VERO E6 cells; test: dual immunostaining of ACIS peptide and S-glycoprotein in infected VERO cells; type: cell-based; details: 25 μM
Experimental: Further confirming the profound activity of KEPTIDE COVIDs in the attenuation of viral infection, a dual immunostaining analyses with ACIS peptide (green) and S-glycoprotein (red) was performed. DAPI staining was carried out to identify big nuclei of VERO cells. […] The result was further corroborated with a quantification study that clearly indicated a strong inhibition of viral load around ACIS-treated VERO cells (***p<0.0001) (FIG. 6B).
In order to evaluate the efficacy of the KEPTIDE COVID in suppressing the secondary or chronic infection of SARS-COV2, testing was performed by dual immunostaining procedure after six hours of viral infection. […] The effect was further confirmed with a quantitative analysis (FIG. 7B).
Double Immunocytochemistry analyses was performed where […] VERO Cells were plated per well in 8-well chamber slide. Cells were starved with serum-free DMEM media for 30 mins followed by the treatment with 25 μM FITC-labeled KEPTIDE COVID. After another 30 mins, unbound KEPTIDE COVIDs were aspirated and then added SARS-CoV2 at a dose of 1-2 PFU/cell. After 2 and 6 hours of virus treatment, viral cells were removed, VERO cells were fixed with 8% PFA and kept at 4° C. for overnight. […]

[3] = target: full-length ACE-2 protein (Homo sapiens, UniProt Q9BYF1); test: BLItz label-free bio-layer interferometry assay; type: binding
Chain of full-length ACE-2 protein (Q9BYF1 18-805): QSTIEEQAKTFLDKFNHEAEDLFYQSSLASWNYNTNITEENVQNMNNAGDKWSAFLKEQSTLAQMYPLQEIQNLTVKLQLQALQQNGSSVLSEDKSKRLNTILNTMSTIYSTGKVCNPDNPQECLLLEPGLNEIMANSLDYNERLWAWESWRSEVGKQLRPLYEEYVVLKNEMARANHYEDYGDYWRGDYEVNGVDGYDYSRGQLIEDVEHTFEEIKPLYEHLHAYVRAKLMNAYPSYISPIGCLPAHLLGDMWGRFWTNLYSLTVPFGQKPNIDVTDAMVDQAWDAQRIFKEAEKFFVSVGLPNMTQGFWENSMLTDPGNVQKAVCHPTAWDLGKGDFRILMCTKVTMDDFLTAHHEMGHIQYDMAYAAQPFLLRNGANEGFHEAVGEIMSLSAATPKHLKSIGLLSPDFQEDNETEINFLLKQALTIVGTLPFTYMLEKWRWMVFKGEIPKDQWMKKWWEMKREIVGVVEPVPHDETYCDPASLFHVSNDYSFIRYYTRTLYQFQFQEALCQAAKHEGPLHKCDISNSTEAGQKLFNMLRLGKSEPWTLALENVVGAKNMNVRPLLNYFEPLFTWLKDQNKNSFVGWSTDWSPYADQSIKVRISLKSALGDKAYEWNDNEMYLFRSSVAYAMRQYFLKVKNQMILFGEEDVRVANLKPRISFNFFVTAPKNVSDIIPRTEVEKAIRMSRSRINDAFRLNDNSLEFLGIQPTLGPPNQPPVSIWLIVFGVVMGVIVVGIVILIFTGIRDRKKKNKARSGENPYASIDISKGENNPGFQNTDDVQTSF
Experimental: The ACIS peptide is specifically designed from the part of S-glycoprotein that is conserved only in the coronaviral family. Because of this specificity there is no possibility of any off-target effect. […] Blitz assay was used to confirm the specificity of ACIS peptide towards ACE-2 protein.
The experiment was performed based on manufacturer's instructions. Briefly, biotinylated ACIS peptide was bound to the BLItz streptavidin-linked biosensor. Different doses of ACE-2 enzyme were then charged to the ACIS peptide and then washed.
To further characterize the binding between ACIS and ACE-2, BLItz label-free bio-layer interferometry assay was performed. ACIS (0.25 μg/μL) was loaded to the sensor and titrated with different concentration of ACE-2 protein starting with the concentration as low as 10 nM. […] BLItz sensor was loaded with ACIS peptide (0.25 μg/μL) followed by titration with different concentrations of ACE-2 enzyme starting from nM range.
This can prevent or inhibit the infection of a host cell by SARS-CoV2 virus.

[4] = system: SARS-CoV2 (SARS CoV-2 USA_WA1/2020) in VERO cells; test: Cytopathic effect (agar monolayer invasion) test of supernatants of treated VERO cells; type: cell-based
[5] = system: SARS-CoV2 in VERO E6 cells; test: SARS-CoV2 plaque assay in VERO E6 cells; type: cell-based; details: 25 μM pre-incubation 30 mins; compared to control; KEPTIDE1 at 1:20 dilution dose
ACE-2 [6] = target: T1, ACE-2; test: fluorescence polarization (FP) assay; type: binding; details: FITC tag at C-terminal end (FIG. 3C)
[7] = target: T2, interaction between S-glycoprotein and ACE-2 protein (Homo sapiens, UniProt Q9BYF1); test: kit-based luminometric inhibitor screen assay; type: biochemical, SARS-CoV2
T2 construct: purchased
T2 sequence (Q9BYF1 18-740): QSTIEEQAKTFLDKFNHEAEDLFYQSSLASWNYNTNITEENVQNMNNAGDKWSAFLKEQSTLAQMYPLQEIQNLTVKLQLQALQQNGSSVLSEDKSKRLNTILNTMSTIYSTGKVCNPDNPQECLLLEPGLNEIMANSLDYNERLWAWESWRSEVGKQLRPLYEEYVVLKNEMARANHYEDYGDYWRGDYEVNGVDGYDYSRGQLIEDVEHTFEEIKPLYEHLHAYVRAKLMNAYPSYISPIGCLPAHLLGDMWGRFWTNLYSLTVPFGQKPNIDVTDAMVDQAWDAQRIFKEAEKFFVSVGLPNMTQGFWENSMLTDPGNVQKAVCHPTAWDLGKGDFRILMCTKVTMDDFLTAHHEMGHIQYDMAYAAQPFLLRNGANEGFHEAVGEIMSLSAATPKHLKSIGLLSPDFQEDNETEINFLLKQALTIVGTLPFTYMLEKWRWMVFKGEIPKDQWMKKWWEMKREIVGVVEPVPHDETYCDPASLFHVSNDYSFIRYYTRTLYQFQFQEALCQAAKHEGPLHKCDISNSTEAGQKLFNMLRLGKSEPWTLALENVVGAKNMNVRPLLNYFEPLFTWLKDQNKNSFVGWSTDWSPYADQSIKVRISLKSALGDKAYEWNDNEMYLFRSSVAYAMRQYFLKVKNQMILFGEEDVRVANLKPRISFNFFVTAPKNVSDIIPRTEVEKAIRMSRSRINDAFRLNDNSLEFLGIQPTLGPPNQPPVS
Text: A kit-based luminometric inhibitor screen assay was used to evaluate the efficacy of the biotinylated and FITC labeled ACIS in inhibiting the interaction between S-glycoprotein and ACE-2 protein.

T1 sequence (Q9BYF1 18-805): as the sequence (Q9BYF1 18-805) above

Compound | interaction with ACE-2 enzyme (binding curve) (ACE-2 [1]) | inhibition of viral particles, secondary or chronic infection ([2]; 6 hours of infection) | inhibition of entry of viral particles, acute infection ([2]; two hours of SARS-CoV2 treatment (1-2 PFU)) | pKd [3] | minimum concentration with dose-dependent binding ([3]; sensor loaded with ACIS 0.25 μg/μL, titrated with ACE-2) | damage of agar monolayer (loss of CV staining) by viral supernatants of treated VERO cells [4] | increase in protection, densitometric quantification of plaque assay [5] | concentration at which peptide binds with ACE-2 (ACE-2 [6]) | hillslope of the inhibition plot [7]
CC(C)[C@H](NC(=O)CNC(=O)[C@H](CC(N)=O)NC(=O)[C@@H](NC(=O)[C@@H]1CCCN1C(=O)[C@H](CCC(N)=O)NC(=O)[C@@H](N)Cc1ccccc1)[C@@H](C)O)C(=O)NCC(=O)N[C@@H](Cc1ccc(O)cc1)C(=O)N[C@@H](CCC(N)=O)C(=O)N1CCC[C@H]1C(=O)N[C@@H](Cc1ccc(O)cc1)C(=O)NCC(=O)O [ACIS peptide, FQPTNGVGYQPYG] | strong interaction with ACE-2 enzyme | continued to repel viral particles significantly from VERO cells | substantially inhibit the entry of viral particles | 6.94 | 13 nM | significant damage in agar monolayer | – | – | –
CC(C)[C@H](NC(=O)CNC(=O)[C@H](CC(N)=O)NC(=O)[C@@H](NC(=O)[C@@H]1CCCN1C(=O)[C@H](CCC(N)=O)NC(=O)[C@@H](N)Cc1ccccc1)[C@@H](C)O)C(=O)NCC(=O)N[C@@H](Cc1ccc(O)cc1)C(=O)N[C@@H](CCC(N)=O)C(=O)N1CCC[C@H]1C(=O)N[C@@H](Cc1ccc(O)cc1)C(=O)NCC(=O)N[C@@H](CCCCNC(=S)Nc1ccc2c(c1)C(=O)OC21c2ccc(O)cc2Oc2cc(O)ccc21)C(=O)O [KEPTIDE2] | – | – | – | – | – | – | three-fold increase in protection | 6.376 nM | −2.4
